Measured values taken from the supplement of paper PMC10307832.

What was measured:
Assay in all cases: relative viability (nuclei count vs DMSO), 5 days (fraction); higher = more cells survive
BI-2536 + Tozasertib = compound: CC[C@@H]1C(=O)N(C)c2cnc(Nc3ccc(C(=O)NC4CCN(C)CC4)cc3OC)nc2N1C1CCCC1 [BI-2536] + Cc1cc(Nc2cc(N3CCN(C)CC3)nc(Sc3ccc(NC(=O)C4CC4)cc3)n2)n[nH]1 [Tozasertib] (partner 0.1 µM)
How it was run: (§1)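 Dosing by pin tool came one day after lung cancer cell lines were seeded in 1536-well plates, using either one drug or a fixed anchor-drug dose plus five library-drug doses (not always all listed) in √10 steps. After 5 days, nuclei were counted on 4× images. Relative viability is treated-well nuclei count divided by vehicle-well nuclei count, and values are medians of duplicate plates.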

BI-2536 + Decitabine = compound: CC[C@@H]1C(=O)N(C)c2cnc(Nc3ccc(C(=O)NC4CCN(C)CC4)cc3OC)nc2N1C1CCCC1 [BI-2536] + Nc1ncn([C@H]2C[C@H](O)[C@@H](CO)O2)c(=O)n1 [Decitabine] (partner 2 µM)
How it was run: as §1

BI-2536 + Trametinib = compound: CC[C@@H]1C(=O)N(C)c2cnc(Nc3ccc(C(=O)NC4CCN(C)CC4)cc3OC)nc2N1C1CCCC1 [BI-2536] + CC(=O)Nc1cccc(-n2c(=O)n(C3CC3)c(=O)c3c(Nc4ccc(I)cc4F)n(C)c(=O)c(C)c32)c1 [Trametinib] (partner 0.02 µM)
How it was run: as §1

[1] = compound: CC1CC(=O)N(C2=CN=C(N=C2N1C3CCCC3)NC4=C(C=C(C=C4)C(=O)NC5CCN(CC5)C)OC)C [NPK76-II-72-1] + C[C@@H](Oc1cc(-c2cnn(C3CCNCC3)c2)cnc1N)c1c(Cl)ccc(F)c1Cl [Crizotinib] (partner 1 µM)
How it was run: as §1

With UMC-11 the relative viability (BI-2536 + Tozasertib; first compound 0.01 µM) was 0.184, the relative viability (BI-2536 + Tozasertib; first compound 0.03162 µM) was 0.203 and the relative viability (BI-2536 + Tozasertib; first compound 0.1 µM) was 0.198. The relative viability (BI-2536 + Tozasertib; first compound 0.3162 µM) was 0.31, the relative viability (BI-2536 + Tozasertib; first compound 1 µM) was 0.361 and the relative viability (BI-2536 + Decitabine; first compound 0.01 µM) was 0.568. For the same cell line, the relative viability (BI-2536 + Decitabine; first compound 0.03162 µM) was 0.306, the relative viability (BI-2536 + Decitabine; first compound 0.1 µM) was 0.232 and the relative viability (BI-2536 + Decitabine; first compound 0.3162 µM) was 0.265. For the same cell line, the relative viability (BI-2536 + Decitabine; first compound 1 µM) was 0.28, the relative viability (BI-2536 + Trametinib; first compound 0.01 µM) was 0.489 and the relative viability (BI-2536 + Trametinib; first compound 0.03162 µM) was 0.637. It also gave a relative viability (BI-2536 + Trametinib; first compound 0.1 µM) of 0.173, a relative viability (BI-2536 + Trametinib; first compound 0.3162 µM) of 0.175 and a relative viability (BI-2536 + Trametinib; first compound 1 µM) of 0.521. The relative viability ([1]; first compound 0.01 µM) was 0.622, the relative viability ([1]; first compound 0.03162 µM) was 0.574 and the relative viability ([1]; first compound 0.1 µM) was 0.669. The relative viability ([1]; first compound 0.3162 µM) was 0.532 and the relative viability ([1]; first compound 1 µM) was 0.707.
